According to patent US20070037788A1, “Tricyclic steroid hormone nuclear receptor modulators” (Eli Lilly and Company, priority 2003, published 2007):
Structures can show the parent of a compound that is named as a salt.

Biological target: T1, human MR (Homo sapiens, UniProt P08235)
T1 construct: The full length human MR gene is cloned from a human kidney or human brain cDNA library; made in house; host or cells: SF9 insect cells (baculovirus)
T1 sequence (P08235 1-984): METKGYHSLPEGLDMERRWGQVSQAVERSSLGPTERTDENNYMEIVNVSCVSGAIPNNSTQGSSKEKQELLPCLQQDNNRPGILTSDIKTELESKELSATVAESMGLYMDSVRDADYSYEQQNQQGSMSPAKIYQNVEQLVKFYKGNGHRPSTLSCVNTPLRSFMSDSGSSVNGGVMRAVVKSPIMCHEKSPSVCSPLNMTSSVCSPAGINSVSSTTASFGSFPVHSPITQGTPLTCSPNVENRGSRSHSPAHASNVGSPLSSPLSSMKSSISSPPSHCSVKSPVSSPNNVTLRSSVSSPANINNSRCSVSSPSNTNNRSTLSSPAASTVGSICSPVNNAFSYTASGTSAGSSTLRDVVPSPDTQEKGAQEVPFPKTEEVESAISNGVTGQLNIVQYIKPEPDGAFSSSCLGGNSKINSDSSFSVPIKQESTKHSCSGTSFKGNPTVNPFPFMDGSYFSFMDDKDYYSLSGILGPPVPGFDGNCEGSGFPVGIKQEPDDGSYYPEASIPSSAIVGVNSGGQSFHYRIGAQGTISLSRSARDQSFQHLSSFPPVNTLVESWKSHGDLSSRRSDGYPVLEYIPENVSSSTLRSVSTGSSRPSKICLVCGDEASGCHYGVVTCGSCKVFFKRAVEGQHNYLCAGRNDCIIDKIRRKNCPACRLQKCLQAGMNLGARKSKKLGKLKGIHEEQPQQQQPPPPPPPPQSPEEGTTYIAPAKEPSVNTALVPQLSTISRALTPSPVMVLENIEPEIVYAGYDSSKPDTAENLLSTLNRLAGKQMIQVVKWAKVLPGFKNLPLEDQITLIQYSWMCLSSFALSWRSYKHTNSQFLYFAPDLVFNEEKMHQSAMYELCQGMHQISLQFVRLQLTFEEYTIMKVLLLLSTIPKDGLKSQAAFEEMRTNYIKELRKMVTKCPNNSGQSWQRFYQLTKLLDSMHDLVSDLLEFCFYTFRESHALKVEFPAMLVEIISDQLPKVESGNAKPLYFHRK
Assay: Mineralocorticoid Receptor Binding Assay (Method 1)
Details: [3H]-aldosterone
Description: The full length human MR gene is cloned from a human kidney or human brain cDNA library. Briefly, using synthetic oligonucleotide primers (Eli Lilly and Company, Indianapolis) directed to nucleotides 20-54 and 3700-3666 of the human MR, polymerase chain reaction (PCR) is performed under standard conditions using a human cDNA library. The PCR reaction is performed in a final volume of 50 μl containing about 1 μl of a 50× stock solution of polymerase; about 1 μl of a 50× stock solution of DNTP; about 5 μl of an appropriate PCR buffer; about 1 μl of each primer; about 5 μl of a H. kidney or H. brain cDNA library; and about 36 μl of water. The reaction is allowed to denature for about 30 seconds at 95 degrees Celsius, anneal for about 30 seconds at 55 degrees Celsius, and extend for about 5 minutes at 72 degrees Celsius, the sequence being repeated for a total of about 35 cycles. The desired PCR product (3.68 Kb) is confirmed by gel electrophoresis and subsequently cut from the gel and stored at about −20 degrees Celsius until extraction. To extract the cDNA product from the agarose gel, the QIAEX II Gel Extraction protocol (QIAGEN, Inc.) is employed according to the manufacturer's instructions. Following extraction, the MR cDNA is cloned into an appropriate cloning vector (Zero Blunt TOPO PCR Cloning Kit (Invitrogen, Inc.) and a pAcHLT-baculovirus transfer vector (B.D./Pharminogen), then expressed in SF9 insect cells, essentially according to manufacturer's instructions. Sf9 cells are grown at a scale where gram quantity cell pellets are obtained for subsequent use in the MR binding assay. Harvested cell pellets are lysed by repeated freeze-thaw cycles (about 4) in a suitable lysis buffer then centrifuged at about 1×10^3 G (with the supernatant being saved for future assays).
MR binding assays are performed in a final total volume of about 250 μl containing about 20-25 μg of protein and 0.5 nM of [^3H]-aldosterone plus varying concentrations of test compound or vehicle. The assay binding buffer consists of 30 mM sodium molybdate, 30 mM of TRIS-HCl, 5 mM sodium phosphate, 5 mM sodium pyrophosphate, and about 10% glycerol, pH=7.5.
Briefly, assays are prepared at RT in 96-well Falcon 3072 plates, each well containing 210 μl of binding buffer, 10 μl of [^3H]-aldosterone, 10 μl of test compound/vehicle, and 20 μl of the resuspended receptor protein extract. Incubations are carried out at 4 degrees Celsius with shaking for about 16 hours. 200 μl aliquots of each incubation are filtered onto Millipore HA 0.45 micron 96-well filter plates, pre-moistened with cold 30 mM TRIS-HCl. The filter plates are suctioned dry with vacuum and immediately washed 3× with cold 30 mM TRIS-HCl. The plates are then punched out and the amount of receptor-ligand complex is determined by liquid scintillation counting using 4 ml of Ready Protein Plus™ liquid scintillation cocktail.

Ki, < 500 nM:
CCN1CC[C@H](n2c(=O)[nH]c3cc(/C=C4\c5ccc(F)cc5COc5cc(F)ccc54)ccc32)C1 [Example 33]
CN1CCN(CCCn2c(=O)[nH]c3cc(/C=C4\c5ccccc5COc5cc(F)ccc54)ccc32)CC1 [Example 7]
C[C@@H](CN1CCOCC1)n1c(=O)[nH]c2cc(/C=C3\c4ccccc4COc4cc(F)ccc43)ccc21 [Example 11]
O=c1[nH]c2cc(/C=C3\c4ccccc4COc4cc(F)ccc43)ccc2n1[C@H]1CCNC1 [Example 9]
O=c1[nH]c2cc(/C=C3/c4ccc(F)cc4OCc4c(F)cccc43)ccc2n1CCN1CCCC1 [Example 35]
O=c1[nH]c2cc(/C=C3\c4ccccc4COc4cc(F)ccc43)ccc2n1C1CNC1 [Example 17]
CCN1CC[C@H](n2c(=O)[nH]c3cc(/C=C4/c5ccc(F)cc5OCc5c(F)cccc54)ccc32)C1 [Example 44]
CN1CCC(n2c(=O)[nH]c3cc(/C=C4/c5ccc(F)cc5OCc5c(F)cccc54)ccc32)CC1 [Example 2, 5-(3,7-Difluoro-6H-dibenzo[b,e]oxepine-11-ylidenemethyl)-1-(1-methyl-piperidin-4-yl)-1,3-dihydro-benzoimidazol-2-one, E-isomer]
CC(C)(CN1CCOCC1)n1c(=O)[nH]c2cc(/C=C3/c4ccc(F)cc4OCc4c(F)cccc43)ccc21 [Example 40]
O=c1[nH]c2cc(/C=C3/c4ccc(F)cc4OCc4c(F)cccc43)ccc2n1C1CCNCC1 [Example 36]
O=c1[nH]c2cc(/C=C3\c4ccc(F)cc4COc4cc(F)ccc43)ccc2n1C1CCNCC1 [Example 28]
O=c1[nH]c2cc(/C=C3\c4ccccc4COc4cc(F)ccc43)ccc2n1C[C@@H]1CCCN1 [Example 18]
O=c1[nH]c2cc(/C=C3\c4ccc(F)cc4COc4cc(F)ccc43)ccc2n1CCCN1CCOCC1 [Example 26]
C[C@H](CN1CCOCC1)n1c(=O)[nH]c2cc(/C=C3\c4ccccc4COc4cc(F)ccc43)ccc21 [Example 10]
CN1CCC(n2c(=O)[nH]c3cc(/C=C4\c5ccccc5COc5cc(F)ccc54)ccc32)CC1 [Example 3, 5-(3-Fluoro-6H-dibenzo[b,e]oxepin-11-ylidenemethyl)-1-(1-methyl-piperidin-4-yl)-1,3-dihydro-benzoimidazol-2-one, E isomer]
C[C@@H](CN1CCOCC1)n1c(=O)[nH]c2cc(/C=C3/c4ccc(F)cc4OCc4c(F)cccc43)ccc21 [Example 39]
CN1CCN(CCn2c(=O)[nH]c3cc(/C=C4\c5ccccc5COc5cc(F)ccc54)ccc32)CC1 [Example 8]
O=c1[nH]c2cc(/C=C3\c4ccccc4COc4cc(F)ccc43)ccc2n1C[C@H]1CCCN1 [Example 19]
CN1CCN(CCn2c(=O)[nH]c3cc(/C=C4\c5ccc(F)cc5COc5cc(F)ccc54)ccc32)CC1 [Example 20]
O=c1[nH]c2cc(/C=C3\c4ccc(F)cc4COc4cc(F)ccc43)ccc2n1[C@H]1CCNC1 [Example 29]
O=c1[nH]c2cc(/C=C3\c4ccccc4COc4cc(F)ccc43)ccc2n1C1CCNCC1 [Example 12]
O=c1[nH]c2cc(/C=C3/c4ccc(F)cc4OCc4c(F)cccc43)ccc2n1CCCN1CCOCC1 [Example 42]
C[C@@H]1CN(CCn2c(=O)[nH]c3cc(/C=C4\c5ccc(F)cc5COc5cc(F)ccc54)ccc32)C[C@H](C)O1 [Example 25]
C[C@@H]1CN(CCn2c(=O)[nH]c3cc(/C=C4/c5ccc(F)cc5OCc5c(F)cccc54)ccc32)C[C@H](C)O1 [Example 41]
CCN1CC[C@@H](n2c(=O)[nH]c3cc(/C=C4/c5ccc(F)cc5OCc5c(F)cccc54)ccc32)C1 [Example 46]
O=c1[nH]c2cc(/C=C3\c4ccc(F)cc4COc4cc(F)ccc43)ccc2n1[C@@H]1CCNC1 [Example 31]
C[C@H](CN1CCOCC1)n1c(=O)[nH]c2cc(/C=C3\c4ccc(F)cc4COc4cc(F)ccc43)ccc21 [Example 22]
CN1CC[C@H](n2c(=O)[nH]c3cc(/C=C4\c5ccc(F)cc5COc5cc(F)ccc54)ccc32)C1 [Example 32]
C[C@H](CN1CCOCC1)n1c(=O)[nH]c2cc(/C=C3/c4ccc(F)cc4OCc4c(F)cccc43)ccc21 [Example 38]
O=c1[nH]c2cc(/C=C3\c4ccccc4COc4cc(F)ccc43)ccc2n1CCN1CCNCC1 [Example 14]
O=c1[nH]c2cc(/C=C3\c4ccc(F)cc4COc4cc(F)ccc43)ccc2n1C1CNC1 [Example 30]
O=c1[nH]c2cc(/C=C3\c4ccccc4COc4cc(F)ccc43)ccc2n1C1CCNC1 (stereo not drawn) [Example 15]
C[C@@H](CN1CCOCC1)n1c(=O)[nH]c2cc(/C=C3\c4ccc(F)cc4COc4cc(F)ccc43)ccc21 [Example 23]
C[C@@H]1CN(CCn2c(=O)[nH]c3cc(/C=C4\c5ccccc5COc5cc(F)ccc54)ccc32)C[C@H](C)O1 [Example 13]
CCN1CC[C@@H](n2c(=O)[nH]c3cc(/C=C4\c5ccc(F)cc5COc5cc(F)ccc54)ccc32)C1 [Example 5, 5-(3,8-Difluoro-6H-dibenzo[b,e]oxepin-11-ylidenemethyl)-1-(1-ethyl-pyrrolidin-3-yl) -1,3-dihydro-benzoimidazol-2-one, HOAc salt, E isomer, chiral]
CN1CCC(n2c(=O)[nH]c3cc(/C=C4\c5ccc(F)cc5COc5cc(F)ccc54)ccc32)CC1 [Example 4, 5-(3,8-Difluoro-6H-dibenzo[b,e]oxepin-11-ylidenemethyl)-1-(1-methyl-piperidin-4-yl) -1,3-dihydro-benzoimidazol-2-one, E isomer]
CN1CCN(CCn2c(=O)[nH]c3cc(/C=C4/c5ccc(F)cc5OCc5c(F)cccc54)ccc32)CC1 [Example 34]
O=c1[nH]c2cc(/C=C3\c4ccc(F)cc4COc4cc(F)ccc43)ccc2n1CCN1CCCC1 [Example 21]
CN1CC[C@H](n2c(=O)[nH]c3cc(/C=C4/c5ccc(F)cc5OCc5c(F)cccc54)ccc32)C1 [Example 45]
